{
  "source": "patent US11840548B2",
  "about": "“UV-curable phosphonium small molecules as antimicrobial coatings and surface active additives” (SCI RESOURCE PLATFORM INC., priority 2020, dated 2023)",
  "key": {"[1]": {"experiment": "advancing water contact angle measurement", "format": "physicochemical", "conditions": "UV-cured phosphonium coating on polystyrene; triplicate", "procedure": "Advancing water contact angle (θC) measurements were performed on the coated pieces to further probe the relationship between the structure of the phosphonium small molecules coated on the substrate and their macroscopic properties as coatings. Measurements for θC trend with charge density results (Table 1).\nThus, after the coating step, a pre-extrusion UV-cure process was introduced to immobilize the phosphoniums to the plastic bead surface. Extrusion of these pre-cured beads at 220° C. into a mold pre-heated to 100° C. yielded the tributylphosphonium-containing plastic PP-2, triphenylphosphonium-containing PP-3, (FIG. 8) and perfluoroalkylphosphonium-containing PP-4 as off-white coloured “dogbone” pieces. The discoloration was due to the amber or off-white natural coloring of the phosphoniums added to the melt, and not UV or heat exposure. The effect of incorporating each phosphonium at 1% was quantified by advancing WCA (Table 1). […] FIG. 1 is a schematic illustration showing a cross section of antimicrobial-enriched plastic with sub-surface phosphonium, which upon abrasion is exposed and available to combat microbial growth."}, "[2]": {"tested_on": "E. coli (ATCC strain 11229)", "experiment": "large drop inoculum (LDI) test, E. coli", "format": "cell-based", "conditions": "UV-cured coating on polystyrene plastic; after 24 hours in contact with the surface", "description": "To guarantee all inoculated cells enter into contact with the test surface, […], serially diluted, plated out onto tryptic soy agar, and enumerated to assess the extent of cell survival and thus antimicrobial efficacy of the test surfaces. Arthrobacter (IAI-3) and E. coli (ATCC strain 11229) were chosen as representative Gram-positive and Gram-negative bacterial strains.\nThe efficacy of these materials against the representative strains of Gram-negative and Gram-positive bacteria lead us to probe the antimicrobial capability of these materials after being subject to abrasive processes, to determine whether tethered sub-surface phosphonium observed by XPS can translate to materials with antimicrobial properties after the surface has be abraded. The process of using an aqueous solution to wipe or rub away dirt or bacteria is one fundamental to sanitation,^50 and as such the solvent double rub protocol described in ASTM D5402^51 was chosen as a representative test of durability. Water was chosen as the solvent due to its ubiquity in cleaning solutions. The same extruded polypropylene samples subjected to the LDI were first rinsed with copious amounts of sterile distilled water, then vortexed for 5 minutes in saline to remove any bacterial debris from the initial test. After another rinse step, the pieces were subjected to 100 solvent double rubs on the tested side using a cotton cloth saturated with distilled water, the amount of force of each rub measured to be between 1000 g and 1600 g. After 100 double rubs, the pieces were rinsed, sterilized under UV light, and the abraded sides were subject to another loading of bacteria."}, "Arthrobacter sp. (IAI-3)": {"tested_on": "Arthrobacter sp. (IAI-3)", "experiment": "large drop inoculum (LDI) test, Arthrobacter", "format": "cell-based", "conditions": "UV-cured coating on polystyrene plastic; after 3 hours in contact with the surface", "procedure": "To guarantee all inoculated cells enter into contact with the test surface, the samples with the droplet are subjected to a standardized 3 h drying period. The cells are then recovered, serially diluted, plated out onto tryptic soy agar, and enumerated to assess the extent of cell survival and thus antimicrobial efficacy of the test surfaces. Arthrobacter (IAI-3) and E. coli (ATCC strain 11229) were chosen as representative Gram-positive and Gram-negative bacterial strains."}},
  "note": "Entries after “also recorded” stand apart in the source; their conditions may differ.",
  "data": [
    {"smiles": "C[P+](C)(C)CCCOc1ccc(C(=O)c2ccccc2)cc1.[Br-]", "note": "[phosphonium 1]", "values": [
      {"measurement": "θc, advancing water contact angle", "setting": "[1]", "value": "71.9 ± 5.1", "unit": "deg"},
      {"measurement": "reduction of viable Gram-negative E. coli cells", "setting": "[2]", "value": "failing to reduce bacterial survivability; also recorded: lack of observed antimicrobial activity"},
      {"measurement": "reduction of viable Gram-positive Arthrobacter cells", "setting": "Arthrobacter sp. (IAI-3)", "value": "failing to reduce bacterial survivability; also recorded: lack of observed antimicrobial activity"}
    ]},
    {"smiles": "CCCC[P+](CCCC)(CCCC)CCCOc1ccc(C(=O)c2ccccc2)cc1.[Br-]", "note": "[phosphonium 2]", "values": [
      {"measurement": "θc, advancing water contact angle", "setting": "[1]", "value": "36.4±11.0", "unit": "deg"},
      {"measurement": "reduction of viable Gram-negative E. coli cells", "setting": "[2]", "value": "full reductions"},
      {"measurement": "reduction of viable Gram-positive Arthrobacter cells", "setting": "Arthrobacter sp. (IAI-3)", "value": "full reductions"}
    ]},
    {"smiles": "O=C(c1ccccc1)c1ccc(OCCC[P+](c2ccccc2)(c2ccccc2)c2ccccc2)cc1.[Br-]", "note": "[phosphonium 3]", "values": [
      {"measurement": "θc, advancing water contact angle", "setting": "[1]", "value": "63.5±5.8", "unit": "deg"},
      {"measurement": "reduction of viable Gram-negative E. coli cells", "setting": "[2]", "value": "full reductions"},
      {"measurement": "reduction of viable Gram-positive Arthrobacter cells", "setting": "Arthrobacter sp. (IAI-3)", "value": "full reductions"}
    ]},
    {"smiles": "O=C(c1ccccc1)c1ccc(OCCC[P+](CCC(F)(F)C(F)(F)C(F)(F)C(F)(F)C(F)(F)C(F)(F)F)(c2ccccc2)c2ccccc2)cc1.[Br-]", "note": "[phosphonium 4]", "values": [
      {"measurement": "θc, advancing water contact angle", "setting": "[1]", "value": "68.0±2.0", "unit": "deg"},
      {"measurement": "reduction of viable Gram-negative E. coli cells", "setting": "[2]", "value": "full reductions"},
      {"measurement": "reduction of viable Gram-positive Arthrobacter cells", "setting": "Arthrobacter sp. (IAI-3)", "value": "full reductions"}
    ]}
  ]
}
